Target: T1, GST-HDAC6, human, recombinant (recombinant HDAC6 WT) (Homo sapiens, UniProt Q9UBN7)
T1 sequence (Q9UBN7 1-1215): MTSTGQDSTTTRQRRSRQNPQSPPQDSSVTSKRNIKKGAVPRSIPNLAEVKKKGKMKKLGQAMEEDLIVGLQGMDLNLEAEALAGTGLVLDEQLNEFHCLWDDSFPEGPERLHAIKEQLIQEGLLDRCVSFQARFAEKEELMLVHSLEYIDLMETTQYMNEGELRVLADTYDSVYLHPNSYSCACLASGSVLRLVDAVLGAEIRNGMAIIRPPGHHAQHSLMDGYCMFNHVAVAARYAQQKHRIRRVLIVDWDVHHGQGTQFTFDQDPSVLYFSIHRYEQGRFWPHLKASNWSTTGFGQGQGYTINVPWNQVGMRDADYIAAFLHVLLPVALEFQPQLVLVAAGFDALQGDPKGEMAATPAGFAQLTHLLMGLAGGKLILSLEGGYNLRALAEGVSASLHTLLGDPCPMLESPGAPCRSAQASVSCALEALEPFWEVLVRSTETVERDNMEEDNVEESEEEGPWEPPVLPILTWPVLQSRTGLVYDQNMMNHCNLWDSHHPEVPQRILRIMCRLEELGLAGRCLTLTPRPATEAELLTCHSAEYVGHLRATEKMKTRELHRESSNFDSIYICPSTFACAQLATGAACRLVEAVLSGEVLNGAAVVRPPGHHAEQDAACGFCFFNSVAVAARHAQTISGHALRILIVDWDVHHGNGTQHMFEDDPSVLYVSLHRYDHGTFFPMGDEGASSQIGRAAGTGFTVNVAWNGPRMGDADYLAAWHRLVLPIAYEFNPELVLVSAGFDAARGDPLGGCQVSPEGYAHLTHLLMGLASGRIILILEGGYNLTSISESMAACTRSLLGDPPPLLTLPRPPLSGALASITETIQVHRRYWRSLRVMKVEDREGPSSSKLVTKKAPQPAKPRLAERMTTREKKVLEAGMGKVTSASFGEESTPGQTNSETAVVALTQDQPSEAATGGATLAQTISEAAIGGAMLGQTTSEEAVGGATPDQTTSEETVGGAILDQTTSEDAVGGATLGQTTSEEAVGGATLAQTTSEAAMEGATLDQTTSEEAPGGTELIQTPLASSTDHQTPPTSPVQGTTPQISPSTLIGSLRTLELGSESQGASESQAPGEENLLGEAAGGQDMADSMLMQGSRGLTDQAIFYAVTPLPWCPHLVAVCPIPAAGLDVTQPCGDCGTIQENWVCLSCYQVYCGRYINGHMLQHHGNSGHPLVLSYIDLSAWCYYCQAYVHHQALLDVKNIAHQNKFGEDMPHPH
Experiment: ELISA PPI competition, HDAC6 binding to immobilised His6-ubiquitin

`Cc1ccccc1OCCCn1cc(C=C2C(=N)N3N=CSC3=NC2=O)c2ccccc21` [compound 16] gave an IC50 of 78 µM.

Source: doi:10.1101/203372v2 (biorxiv, 2017)
